The assay concerns the target T1, CYP3A4 (Homo sapiens, UniProt P08684).
T1 construct: Pooled (n≧15 donors) human hepatic microsomal fraction was obtained from BD-Gentest; tissue BD-Gentest (Woburn, Mass.); host or cells: pooled human liver microsomes (n≧15 donors)
As to the kind of experiment: CYP3A inhibition assay in pooled human hepatic microsomal fraction (midazolam 1-hydroxylase and testosterone 6β-hydroxylase activities). The class given is biochemical. As to conditions: human hepatic microsomes. How it is done: The initial mobile phase consisted of 94.9% water, 0.1% formic acid, and 5% acetonitrile (v/v/v) pumped at 0.5 mL/min. After 0.5 min the acetonitrile concentration was increased to 30% over 0.5 min. The acetonitrile concentration was then further increased to 100% over 0.5 min and held for 1.3 min, after which the column was re equilibrated at the initial conditions for 1.2 min. Rates of metabolite formation were determined from standard curves using PAR determined with authentic metabolite standards.

[1] abbreviates: probe activity midazolam 1-hydroxylase, read-out: CYP3A4 IC50 (μM) (midazolam).
Setting [2] is: probe activity testosterone 6β-hydroxylase, substrate 50 μM, read-out: CYP3A4 IC50 (μM) (testosterone).

The structures appear in SMILES notation. Read-outs that look alike come from different tables or passages of the source.

Experimental findings from US20130280212A1, “INHIBITORS OF CYTOCHROME P450” (GILEAD SCIENCES, INC, priority 2010, published 2013) are described below.

In general, IC50 refers to the concentration needed to halve the response being measured.

T1 sequence (P08684 2-503): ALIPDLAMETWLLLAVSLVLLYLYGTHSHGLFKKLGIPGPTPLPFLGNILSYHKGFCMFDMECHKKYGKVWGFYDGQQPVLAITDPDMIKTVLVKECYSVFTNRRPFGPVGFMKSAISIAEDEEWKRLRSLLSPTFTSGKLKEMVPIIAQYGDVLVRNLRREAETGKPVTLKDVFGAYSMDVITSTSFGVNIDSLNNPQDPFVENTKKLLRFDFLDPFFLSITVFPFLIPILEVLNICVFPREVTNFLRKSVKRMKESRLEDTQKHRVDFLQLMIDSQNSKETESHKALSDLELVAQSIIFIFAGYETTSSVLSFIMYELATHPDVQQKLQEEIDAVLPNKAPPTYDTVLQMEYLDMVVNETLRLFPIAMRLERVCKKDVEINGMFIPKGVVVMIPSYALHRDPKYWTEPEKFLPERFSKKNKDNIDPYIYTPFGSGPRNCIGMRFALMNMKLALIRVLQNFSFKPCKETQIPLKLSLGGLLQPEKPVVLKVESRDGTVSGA

Consider `O=C(N[C@H](CC[C@H](Cc1ccccc1)NC(=O)[C@H]1CC[C@H](c2ccc(Cl)cc2)CC1)Cc1ccccc1)OCc1cncs1` [Compound 5], for which the concentration for half-maximal inhibition (IC50) is 1.8 µM under setting [1] and above 25 µM under setting [2].
As for `CCC(CC)OC(=O)N[C@H](CC[C@H](Cc1ccccc1)NC(=O)OCc1cncs1)Cc1ccccc1` [Compound 10], the IC50 by setting is: under setting [1], 0.2 µM; under setting [2], 0.5 µM.
The corresponding values for `CCC(C)NC(=O)N[C@H](CC[C@H](Cc1ccccc1)NC(=O)OCc1cncs1)Cc1ccccc1` (some centres unmarked) [Compound 15] are below 0.1 µM and 0.25 µM.
The corresponding values for `CC(C)CC(C)OC(=O)N[C@H](CC[C@H](Cc1ccccc1)NC(=O)OCc1cncs1)Cc1ccccc1` (some centres unmarked) [Compound 11] are 0.25 µM and 0.71 µM.
The corresponding values for `CCC(C)S(=O)(=O)N[C@H](CC[C@H](Cc1ccccc1)NC(=O)OCc1cncs1)Cc1ccccc1` (some centres unmarked) [Compound 18] are below 0.1 µM and 0.34 µM.
`CC(C)OC(=O)N[C@H](CC[C@H](Cc1ccccc1)NC(=O)OCc1cncs1)Cc1ccccc1` [Compound 8]: the IC50 is, setting by setting: under setting [1], below 0.1 µM; under setting [2], 0.38 µM.
For `CC(C)S(=O)(=O)N[C@H](CC[C@H](Cc1ccccc1)NC(=O)OCc1cncs1)Cc1ccccc1` [Compound 17] the same measures were below 0.1 µM and 0.32 µM.
For `CC(CC(C)(C)C)OC(=O)N[C@H](CC[C@H](Cc1ccccc1)NC(=O)OCc1cncs1)Cc1ccccc1` (some centres unmarked) [Compound 13] the same measures were 0.4 µM and 0.54 µM.
For `CCC(C)OC(=O)N[C@H](CC[C@H](Cc1ccccc1)NC(=O)OCc1cncs1)Cc1ccccc1` (some centres unmarked) [Compound 9] the same measures were 0.13 µM and 0.43 µM.
Take `CCC(CC)NC(=O)N[C@H](CC[C@H](Cc1ccccc1)NC(=O)OCc1cncs1)Cc1ccccc1` [Compound 16]: the IC50 under setting [1] is below 0.1 µM and the IC50 under setting [2] was 0.41 µM.
For `CC(C)NC(=O)N[C@H](CC[C@H](Cc1ccccc1)NC(=O)OCc1cncs1)Cc1ccccc1` [Compound 14] the same measures were below 0.1 µM and 0.27 µM.
As for `CC[C@@H](C(=O)N[C@H](CC[C@H](Cc1ccccc1)NC(=O)OCc1cncs1)Cc1ccccc1)c1ccccc1` [Compound 6], the IC50 was determined as 0.51 µM under setting [1] and 1.4 µM under setting [2].
The corresponding values for `CC(C)[C@H]1CC[C@H](C(=O)N[C@H](CC[C@H](Cc2ccccc2)NC(=O)OCc2cncs2)Cc2ccccc2)CC1` [Compound 4] are below 0.1 µM and 3.4 µM.
For `CC[C@H](C)C(=O)N[C@H](CC[C@H](Cc1ccccc1)NC(=O)OCc1cncs1)Cc1ccccc1` [Compound 7] the same measures were below 0.1 µM and 0.36 µM.
For `C[C@H]1CC[C@H](C(=O)N[C@H](CC[C@H](Cc2ccccc2)NC(=O)OCc2cncs2)Cc2ccccc2)CC1` [Compound 3] the same measures were 0.12 µM and 0.27 µM.
In the case of `CC(C)CC(OC(=O)N[C@H](CC[C@H](Cc1ccccc1)NC(=O)OCc1cncs1)Cc1ccccc1)C(C)C` (some centres unmarked) [Compound 12], the IC50 under setting [1] was 0.38 µM and the IC50 under setting [2] was found to be 0.4 µM.
